Literature values, collected in article PMC7503629, “Synthesis and Biological Studies on Dinuclear Gold(I) Complexes with Di-(N-Heterocyclic Carbene) Ligands Functionalized with Carbohydrates” (Molecules, 2020).

Parameters: method as in doi:10.1002/ejic.201700768
Conditions: attributed to low mitochondrial penetration; cited from earlier work

## [Au(magi)Cl] (magi = 1-methyl-3-(2,3,4,6-tetra-O-acetyl-β-D-glucopyranosyl)imidazole-2-ylidene)
  antiproliferative activity (in words): inertness
